From patent US11813277B2, “Methods and agents for modulating inflammation” (The Regents of the University of California, priority 2018, dated 2023)

Tests used:
LCFA oxidation in BMDMs = assay: 9,10-3H-palmitate oxidation (3H2O release) in BMDMs; type: cell-based, mouse; settings: 3 μM etomoxir
Protocol: BMDMs at day 6 of differentiation were seeded at 3×10^5 cells/well in 12 well plates in BMDM media. The next day, cells were treated in DMEM containing 25 mM glucose supplemented with 5% FBS, 2 mM L-Glutamax, 100 units/mL, 100 μg/mL penicillin/streptomycin, 1 mM of sodium pyruvate, 1 mM carnitine, and 5% v/v conditioned media containing macrophage colony stimulating factor (M-CSF) under one of 5 conditions: control, 20 ng/mL of IL-4±3 μM or 200 μM of etomoxir, or 200 nM rotenone, or 200 nM antimycin A for 24 hr. Fatty acid oxidation was measured 24 hours later as previously described (Rognstad, R. (1991) Estimation of peroxisomal and mitochondrial fatty acid oxidation in rat hepatocytes using tritiated substrates. Biochem J 279:147-150, 1991; Cha, B. S., Ciaraldi, T. P., Park, K. S., Carter, L., Mudaliar, S. R., and Henry R R. (2005) Impaired fatty acid metabolism in type 2 diabetic skeletal muscle cells is reversed by PPARgamma agonists. Am J Physiol Endocrinol Metab. 289, E151-9) following a fluid change to DMEM with components as described above except 10 mM glucose and 0.2 μCi (final concentration of 5 μM) BSA-conjugated [9,10-3H]palmitic acid. No additional IL-4 was added at the time of this fluid change, but etomoxir, rotenone and antimycin A were added, and the plates were placed in a […] incubator at 37° C. for 3 hr. After incubation, a 100 μL aliquot of the culture medium was passed over an ion-exchange resin, and the column was washed twice with 0.75 ml of water. Free fatty acids were retained by the resin, whereas the tritium hydrolyzed from radiolabeled palmitate catabolism was released as labeled water, which passes freely through the resin, and is subsequently counted for radioactivity. All data are corrected for protein content in each well. There were 3 technical replicates for each condition, and 4 biological replicates arising from 4 separate animals.

[1] = test system: permeabilized HepG2 or A549 cells; assay: ADP- vs FCCP-stimulated respiration in permeabilized cells, etomoxir added directly; type: cell-based; settings: high concentrations of etomoxir
BMDMs = assay: Substrate-specific respirometry in permeabilized cells; type: cell-based, mouse; settings: 3 μM etomoxir
CPT-1 = biological target: T1, CPT-1 (Homo sapiens, UniProt P50416); assay: Palmitoyl CoA-driven respiration in permeabilized A549 cells; type: cell-based; parameters: endogenous in cells; host or cells: A549 (A6)
T1 sequence (P50416 1-773): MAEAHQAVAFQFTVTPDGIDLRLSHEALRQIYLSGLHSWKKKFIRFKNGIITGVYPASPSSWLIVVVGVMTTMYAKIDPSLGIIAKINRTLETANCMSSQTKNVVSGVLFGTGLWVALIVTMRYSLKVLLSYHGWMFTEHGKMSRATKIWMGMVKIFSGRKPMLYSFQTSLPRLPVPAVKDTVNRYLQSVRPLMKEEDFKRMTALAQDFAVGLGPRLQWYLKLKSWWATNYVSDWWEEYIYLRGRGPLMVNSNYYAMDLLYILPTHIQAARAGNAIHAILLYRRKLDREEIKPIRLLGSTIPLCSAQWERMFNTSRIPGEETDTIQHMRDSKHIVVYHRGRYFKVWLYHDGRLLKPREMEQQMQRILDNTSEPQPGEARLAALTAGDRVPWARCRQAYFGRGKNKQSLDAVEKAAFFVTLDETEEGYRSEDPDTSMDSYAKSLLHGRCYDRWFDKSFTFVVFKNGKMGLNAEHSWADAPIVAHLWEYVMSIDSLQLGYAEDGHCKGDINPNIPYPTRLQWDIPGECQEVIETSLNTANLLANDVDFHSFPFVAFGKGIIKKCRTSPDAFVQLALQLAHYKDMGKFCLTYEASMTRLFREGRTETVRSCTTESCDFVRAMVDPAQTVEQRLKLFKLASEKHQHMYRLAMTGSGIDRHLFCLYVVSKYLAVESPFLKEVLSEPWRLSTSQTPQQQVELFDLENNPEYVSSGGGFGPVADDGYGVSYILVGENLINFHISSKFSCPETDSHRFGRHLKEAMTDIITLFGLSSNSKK

[2] = test system: isolated rat liver mitochondria; assay: ADP- vs FCCP-stimulated respiration in isolated liver mitochondria; type: biochemical; settings: high etomoxir (100 μM), pyruvate/malate
Protocol: Mouse liver mitochondria were isolated according to standard techniques (Rogers, G. W., Brand, M. D., Petrosyan, S., Ashok, D., Elorza, A. A., Ferrick, D. A., and Murphy, A. N. (2011) High throughput microplate respiratory measurements using minimal quantities of isolated mitochondria. PLoS One. 6, e21746). The liver from a male mouse was minced and rinsed several times in MSHE [70 mM sucrose, 210 mM mannitol, 5 mM HEPES (pH 7.2), and 1 mM EGTA with 0.5% (w/v) fatty acid-free BSA] to remove blood. Tissue was disrupted using a drill-driven Teflon-on-glass Dounce homogenizer (between 2-4 strokes). The homogenate was centrifuged at 800 g for 10 min and the supernatant was filtered through cheesecloth and centrifuged at 8000 g for 10 min. […]
Phosphorylating respiration was measured in isolated liver mitochondria (1.5 μg/well) as previously described (Rogers, G. W., Brand, M. D., Petrosyan, S., Ashok, D., Elorza, A. A., Ferrick, D. A., and Murphy, A. N. (2011) High throughput microplate respiratory measurements using minimal quantities of isolated mitochondria. PLoS One. 6, e21746), and offered 10 mM pyruvate, 1 mM malate, and 4 mM ADP. Uncoupler stimulated respiration was measured after addition of oligomycin (3 ng/mg mitochondrial protein) and FCCP (4 μM). […]

CCOC(=O)[C@@]1(CCCCCCOc2ccc(Cl)cc2)CO1 [etomoxir] was tested, and the “3H2O release from tritiated palmitate” value (LCFA oxidation in BMDMs) was “effectively suppress”, the “respiration driven by ADP versus FCCP” value [1] was “greater inhibitory effect on respiration driven by ADP versus FCCP” and the “palmitoyl CoA oxidation” value (BMDMs) was “significant effect”. The “respiration driven by substrates which do not require CPT-1” value (BMDMs; glutamate/malate, pyruvate/malate, palmitoylcarnitine/malate, succinate/rotenone) was “no effect”, the “EC50, FCCP-stimulated palmitoyl CoA-driven respiration” value (CPT-1) was “nanomolar” and the “concentration of saturable effect” value (CPT-1) was “less than 3 μM”. For the same compound, the “respiration driven by ADP versus FCCP” value [2] was “greater inhibitory effect on respiration driven by ADP versus FCCP”.
